Data from ChEMBL document CHEMBL1129998, “Pharmacological options in the treatment of benign prostatic hyperplasia” (J Med Chem, 1997).
Blank lines part the entries; values can stand above or below the compound they belong to.

Columns and labels:
[1] = Binding affinity on human prostatic 5-alpha reductase isozyme
[2] = biological target: T1, Steroid 5-alpha-reductase (Rattus norvegicus, UniProt P24008+P31214); assay: Binding affinity on rat 5-alpha reductase isozyme; format: protein assay
T1 sequence (P24008 whole entry): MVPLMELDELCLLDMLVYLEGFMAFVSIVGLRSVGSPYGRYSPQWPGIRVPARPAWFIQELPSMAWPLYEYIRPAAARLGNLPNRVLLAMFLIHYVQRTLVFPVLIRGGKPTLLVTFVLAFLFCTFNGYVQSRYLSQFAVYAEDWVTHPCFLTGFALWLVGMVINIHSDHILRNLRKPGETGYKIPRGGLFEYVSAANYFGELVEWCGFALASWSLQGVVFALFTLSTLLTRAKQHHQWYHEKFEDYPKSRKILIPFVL
T1 sequence (P31214 whole entry): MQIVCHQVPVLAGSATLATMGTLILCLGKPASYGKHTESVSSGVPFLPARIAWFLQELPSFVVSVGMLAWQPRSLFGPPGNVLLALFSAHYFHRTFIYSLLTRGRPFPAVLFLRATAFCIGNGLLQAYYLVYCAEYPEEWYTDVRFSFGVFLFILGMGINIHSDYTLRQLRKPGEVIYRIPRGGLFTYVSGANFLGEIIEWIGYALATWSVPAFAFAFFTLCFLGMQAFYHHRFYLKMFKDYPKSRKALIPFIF

[3] = biological target: T2, Alpha-1A adrenergic receptor (Homo sapiens, UniProt P35348); assay: Binding affinity was tested on human Alpha-1A adrenergic receptor
T2 sequence (P35348 whole entry): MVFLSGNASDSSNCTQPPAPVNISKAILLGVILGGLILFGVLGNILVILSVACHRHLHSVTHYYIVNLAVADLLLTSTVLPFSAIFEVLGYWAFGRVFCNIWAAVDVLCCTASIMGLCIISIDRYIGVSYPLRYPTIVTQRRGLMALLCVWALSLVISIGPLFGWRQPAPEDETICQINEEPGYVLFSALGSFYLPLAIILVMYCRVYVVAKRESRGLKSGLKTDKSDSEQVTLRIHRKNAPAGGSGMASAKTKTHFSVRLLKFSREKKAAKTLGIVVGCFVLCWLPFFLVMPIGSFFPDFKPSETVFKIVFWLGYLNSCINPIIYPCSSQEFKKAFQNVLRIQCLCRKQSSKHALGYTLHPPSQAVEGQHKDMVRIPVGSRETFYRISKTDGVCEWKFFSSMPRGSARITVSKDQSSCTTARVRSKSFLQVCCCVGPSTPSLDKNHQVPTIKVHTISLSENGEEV

Canis familiaris [4] = assay: 50% reduction in intraurethral pressure (IUP) in response to hypogastric nerve stimulation or agonist (phenylephrine or norepinephrine) administration in anesthetized dog; format: functional; settings: Canis lupus familiaris; read-out: ID50 (the source's name)
Canis familiaris [5] = assay: 50% reduction in agonist induced pressor response in anesthetized dog; format: functional; settings: Canis lupus familiaris; read-out: ID50 (the source's name)
[6] = biological target: T3, Alpha-1B adrenergic receptor (Homo sapiens, UniProt P35368); assay: Binding affinity was tested on human Alpha-1B adrenergic receptor
T3 sequence (P35368 whole entry): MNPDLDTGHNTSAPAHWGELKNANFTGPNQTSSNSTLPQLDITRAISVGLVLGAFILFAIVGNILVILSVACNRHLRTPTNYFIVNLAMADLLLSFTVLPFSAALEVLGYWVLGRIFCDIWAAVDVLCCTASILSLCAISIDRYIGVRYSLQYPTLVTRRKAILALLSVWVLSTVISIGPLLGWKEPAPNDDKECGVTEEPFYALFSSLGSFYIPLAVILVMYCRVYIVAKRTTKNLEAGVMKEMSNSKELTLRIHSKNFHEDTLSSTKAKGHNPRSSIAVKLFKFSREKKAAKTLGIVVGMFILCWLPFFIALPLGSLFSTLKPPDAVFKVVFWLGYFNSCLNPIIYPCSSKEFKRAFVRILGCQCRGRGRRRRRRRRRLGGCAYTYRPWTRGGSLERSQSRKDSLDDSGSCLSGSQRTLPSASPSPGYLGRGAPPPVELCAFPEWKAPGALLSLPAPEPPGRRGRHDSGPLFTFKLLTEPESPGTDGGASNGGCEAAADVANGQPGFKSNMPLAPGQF

[7] = biological target: T4, Adrenergic receptor alpha-1 (Homo sapiens, UniProt P35348+P25100+P35368); assay: pA2 for Alpha-1 adrenergic receptor from human prostate.; format: tissue-based, Prostate gland
T4 sequence (P35348 whole entry): T2 sequence (P35348 whole entry)
T4 sequence (P25100 whole entry): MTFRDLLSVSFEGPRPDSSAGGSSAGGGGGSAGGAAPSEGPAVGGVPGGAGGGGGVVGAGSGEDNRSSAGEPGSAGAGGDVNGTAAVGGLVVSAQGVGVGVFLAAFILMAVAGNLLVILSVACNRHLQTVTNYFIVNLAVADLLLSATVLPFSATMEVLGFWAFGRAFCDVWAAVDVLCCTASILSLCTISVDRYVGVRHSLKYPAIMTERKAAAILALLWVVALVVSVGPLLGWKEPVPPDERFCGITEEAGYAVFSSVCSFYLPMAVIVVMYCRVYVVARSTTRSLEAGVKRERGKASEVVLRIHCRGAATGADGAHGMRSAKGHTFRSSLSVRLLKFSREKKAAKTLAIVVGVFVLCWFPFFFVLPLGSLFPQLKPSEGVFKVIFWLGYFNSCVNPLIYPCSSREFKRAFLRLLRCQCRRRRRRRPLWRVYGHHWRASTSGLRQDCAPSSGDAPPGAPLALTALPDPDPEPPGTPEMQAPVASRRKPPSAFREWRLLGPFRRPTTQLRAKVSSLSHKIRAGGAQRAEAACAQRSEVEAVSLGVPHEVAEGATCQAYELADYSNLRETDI
T4 sequence (P35368 whole entry): T3 sequence (P35368 whole entry)

[8] = biological target: T5, Alpha-1D adrenergic receptor (Homo sapiens, UniProt P25100); assay: Binding affinity was tested on human Alpha-1D adrenergic receptor
T5 sequence (P25100 whole entry): T4 sequence (P25100 whole entry)

[9] = Ratio of intraurethral pressure to that of pressor response in dog.; format: functional
[10] = biological target: 3 beta-hydroxysteroid dehydrogenase/Delta 5-->4-isomerase type 1 (Homo sapiens, UniProt P14060); assay: Binding affinity on 3 beta-hydroxysteroid dehydrogenase
[11] = biological target: T6, 3-oxo-5-alpha-steroid 4-dehydrogenase 2 (Homo sapiens, UniProt P31213); assay: Inhibitory concentration on human 5-alpha reductase 2 (transfected SW-13 cells)
T6 sequence (P31213 whole entry): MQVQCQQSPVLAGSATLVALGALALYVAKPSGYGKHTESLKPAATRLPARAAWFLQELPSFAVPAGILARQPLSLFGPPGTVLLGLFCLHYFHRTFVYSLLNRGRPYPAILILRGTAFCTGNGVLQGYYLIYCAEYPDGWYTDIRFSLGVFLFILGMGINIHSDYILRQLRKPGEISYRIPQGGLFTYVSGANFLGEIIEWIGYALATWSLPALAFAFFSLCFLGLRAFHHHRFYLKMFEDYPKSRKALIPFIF

[12] = Dose (iv) for 20% reduction of mean blood pressure in rat (ID20) with the dose for 50% inhibition of norepinephrine-mediated contraction of proximal urethra (ID50) in cat; format: functional
[13] = biological target: T7, Alpha-1B adrenergic receptor (Rattus norvegicus, UniProt P15823); assay: Binding affinity was tested on CEC-pretreated rat liver Alpha-1B adrenergic receptor
T7 sequence (P15823 whole entry): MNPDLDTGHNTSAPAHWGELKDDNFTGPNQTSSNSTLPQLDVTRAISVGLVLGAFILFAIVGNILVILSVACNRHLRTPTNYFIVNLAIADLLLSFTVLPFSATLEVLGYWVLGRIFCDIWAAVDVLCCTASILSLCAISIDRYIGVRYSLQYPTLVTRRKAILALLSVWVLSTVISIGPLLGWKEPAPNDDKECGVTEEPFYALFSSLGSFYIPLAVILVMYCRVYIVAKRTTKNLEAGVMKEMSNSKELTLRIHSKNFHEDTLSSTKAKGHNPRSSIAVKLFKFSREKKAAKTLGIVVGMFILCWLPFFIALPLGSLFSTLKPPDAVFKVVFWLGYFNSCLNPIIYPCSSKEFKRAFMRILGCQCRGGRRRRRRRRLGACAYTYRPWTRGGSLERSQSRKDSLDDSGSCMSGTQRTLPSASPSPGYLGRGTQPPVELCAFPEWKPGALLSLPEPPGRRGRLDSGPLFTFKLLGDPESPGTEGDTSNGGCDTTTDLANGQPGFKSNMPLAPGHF

[14] = biological target: T8, Alpha-1A adrenergic receptor (Rattus norvegicus, UniProt P43140); assay: Binding affinity was tested on CEC-pretreated rat hippocampus Alpha-1A adrenergic receptor; format: tissue-based
T8 sequence (P43140 whole entry): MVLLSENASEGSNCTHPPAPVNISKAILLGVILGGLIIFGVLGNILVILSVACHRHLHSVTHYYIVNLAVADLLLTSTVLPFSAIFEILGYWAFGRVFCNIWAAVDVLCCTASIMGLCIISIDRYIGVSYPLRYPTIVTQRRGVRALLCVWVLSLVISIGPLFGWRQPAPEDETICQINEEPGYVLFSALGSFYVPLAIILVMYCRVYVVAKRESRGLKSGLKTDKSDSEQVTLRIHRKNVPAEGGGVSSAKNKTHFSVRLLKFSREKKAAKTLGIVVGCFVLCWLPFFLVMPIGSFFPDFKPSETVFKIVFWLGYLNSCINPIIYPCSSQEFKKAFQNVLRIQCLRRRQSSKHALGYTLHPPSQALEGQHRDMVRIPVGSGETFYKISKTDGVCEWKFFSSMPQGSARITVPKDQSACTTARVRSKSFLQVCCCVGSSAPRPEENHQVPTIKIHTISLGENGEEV

Canis familiaris [15] = assay: (§1) In vivo dose (iv) for 50% inhibition of norepinephrine-mediated contraction of proximal urethra (ID50) with the dose (iv) for 25% reduction in systolic blood pressure (ED25) in anesthetized dogs; format: functional, Canis lupus familiaris, Artery
[16] = biological target: T6, 3-oxo-5-alpha-steroid 4-dehydrogenase 2; assay: Binding affinity for human 5-alpha reductase 2 isozyme
[17] = biological target: T9, 3-oxo-5-alpha-steroid 4-dehydrogenase 1 (Homo sapiens, UniProt P18405); assay: Binding affinity for human 5 alpha reductase 1 isozyme
T9 sequence (P18405 whole entry): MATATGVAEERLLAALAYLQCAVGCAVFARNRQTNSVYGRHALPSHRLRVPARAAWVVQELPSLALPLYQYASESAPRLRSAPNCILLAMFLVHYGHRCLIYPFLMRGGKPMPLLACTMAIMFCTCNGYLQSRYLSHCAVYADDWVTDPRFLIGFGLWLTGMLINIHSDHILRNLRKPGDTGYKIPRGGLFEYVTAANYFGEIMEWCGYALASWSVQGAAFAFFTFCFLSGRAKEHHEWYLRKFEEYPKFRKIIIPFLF

[18] = as §1; format: functional

Sequence of 3 beta-hydroxysteroid dehydrogenase/Delta 5-->4-isomerase type 1 (P14060 whole entry): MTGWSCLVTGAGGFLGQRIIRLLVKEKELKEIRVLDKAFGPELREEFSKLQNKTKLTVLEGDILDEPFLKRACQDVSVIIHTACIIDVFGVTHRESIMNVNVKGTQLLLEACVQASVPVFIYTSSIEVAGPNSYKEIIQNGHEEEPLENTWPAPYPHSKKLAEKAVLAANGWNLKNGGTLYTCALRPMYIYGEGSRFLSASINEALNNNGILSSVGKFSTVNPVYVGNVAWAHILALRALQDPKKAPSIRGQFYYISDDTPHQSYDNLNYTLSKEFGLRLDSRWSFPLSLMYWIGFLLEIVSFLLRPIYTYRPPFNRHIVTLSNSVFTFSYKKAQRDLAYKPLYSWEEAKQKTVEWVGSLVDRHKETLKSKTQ

Compound: CC(C)N(C(=O)c1ccc(CCC2CCC(=O)N(C)C2)cc1)C(C)C (stereo not drawn)
Ki [1]: > 20000 nM
Ki [2]: > 20000 nM

Compound: CC(C)(C)CC(C)(C)NC(=O)[C@H]1CCC2C3CNC4=CC(=O)CC[C@]4(C)C3CC[C@@]21C (stereo partly drawn)
IC50 [10]: 150 nM

Compound: CC(C)(C)NC(=O)[C@H]1CCC2C3CCC4=C(C#N)C(=O)CC[C@]4(C)C3CC[C@@]21C (stereo partly drawn)
IC50 [11]: 2.9 nM

Compound: COc1ccccc1N1CCN(CCCC(=O)c2cccc3c(=O)c(C)c(-c4ccccc4)oc23)CC1
IC50 [13]: 24 nM
IC50 [14]: 1.5 nM
Ratio (Canis familiaris [15]): 39

Compound: COc1ccccc1N1CCN(CCCCOc2cccc3c(=O)c(C)c(-c4ccccc4)oc23)CC1
IC50 [13]: 39 nM
IC50 [14]: 10 nM
Ratio [18]: 13

More lines, main results first:

Ki [3]: 1 nM
Ki [6]: 79.4 nM
pA2 [7]: 8.8
Ki [8]: 100 nM
Compound: Cc1c[nH]c(=O)n(CCCN2CCN(c3ccc(F)cc3OCC(F)(F)F)CC2)c1=O
ED50 (Canis familiaris [4]): 0.005 mg/kg
ED50 (Canis familiaris [5]): 0.38 mg/kg
Ratio [9]: 76

Ki [3]: 2.51 nM
Ki [6]: 12.6 nM
pA2 [7]: 8.6
Ki [8]: 2.51 nM
Compound: COc1ccc(Cl)cc1N1CCN(CCCNc2nccc(C(N)=O)n2)CC1
Ratio [12]: 46
ED50 (Canis familiaris [4]): 0.005 mg/kg
ED50 (Canis familiaris [5]): 0.021 mg/kg
Ratio [9]: 5

IC50 [16]: < 0.1 nM
Ki [17]: 0.2 nM
Compound: CC1=C2NCC3C(CC[C@@]4(C)C3CC[C@@H]4C(=O)Nc3cc(C(F)(F)F)ccc3C(F)(F)F)[C@@]2(C)CCC1=O (stereo partly drawn)

IC50 [10]: 8.3 nM
Compound: CC(C)(C)CCNC(=O)[C@H]1CCC2C3CNC4=CC(=O)CC[C@]4(C)C3CC[C@@]21C (stereo partly drawn)
